Source: patent US20050014689A1, “Remedies for life style-related diseases or cibophobia and method of screening the same” (priority 2001, published 2005)

Tested on: clone 901 mRNA
Experiment: Effect of intracerebroventricular antisense DNA administration on food consumption of normal and obese mice
Format: in vivo
Conditions: 30 μg/mouse into lateral ventricle
From the text: reagent: clone 901 antisense DNA was a mixture of two kinds of 25mer antisense DNAs relative to the vicinity of the gene initiation codon and synthesis, thiolation and HPLC purification were committed to Nihon Bio Service Co., Ltd.
Test animal: male C57BL/6N (hereinafter normal mouse) and C57BL db/db (hereinafter obese mouse) (SPF grade) were purchased from Charles River, Japan, Inc. and CLEA JAPAN, INC., respectively, and after preliminary breeding, normal mice were used for the test at the age of 9 weeks and the obese mice were used for the test at the age of 11 weeks.
Breeding environment: The mice were bred in a room controlled to a temperature of not lower than 20° C. and not higher than 26° C., relative humidity of not less than 30% and not more than 70%, lighting cycle of 8:00-20:00 lighting and 20:00-8:00 lights-out. During breeding, the mice were allowed a free access to a solid feed (CE-2, CLEA JAPAN) and sterile distilled water.
As an antisense DNA administration liquid, an artificial cerebrospinal fluid (0.166 g/L CaCl2, 7.014 g/L NaCl, 0.298 g/L KCl, 0.203 g/L MgCl2.6H2O, 2.10 g/L NaHCO3) containing 7.5 μg/μl of antisense DNA was prepared. In addition, an artificial cerebrospinal fluid free of antisense DNA was used as a solvent control liquid.
The normal mice and obese mice were divided into two groups each, and after fasting overnight, an antisense DNA was administered at 4 μl/mouse (30 μg/mouse in the amount of antisense DNA) to one group and a solvent control liquid (4 μl/mouse) was administered into the lateral ventricle of the other group, simultaneously with the lighting at 8:00 a.m.
Feeding of mice was resumed immediately after administration, and food consumption was calculated at 12 hours after administration. […] The food consumption from 12 hr to 24 hr after administration was calculated. […] In the normal mice, no effect of antisense DNA of clone 901 was found.

antisense DNA of clone 901: mixture of two thiolated 25mer antisense DNAs (SEQ ID No 3 and No 4) to the vicinity of the clone 901 initiation codon (antisense 1 GCTTCGCAGCGCTCGCTGGGCGGCG; antisense 2 AGTGGGCCACAGCTCCACATGGCAG; DNA, all phosphorothioate, methylation of C not given here)
effect on food consumption (normal mice (C57BL/6N), 12 hr to 24 hr after administration): no effect
effect on food consumption (normal mice (C57BL/6N), immediately after administration to 12 hours): food consumption-decreasing effect
effect on food consumption (obese mice (C57BL db/db), 12 hr to 24 hr after administration): suppressed to the same level with the normal mice
effect on food consumption (obese mice (C57BL db/db), immediately after administration to 12 hours): food consumption-decreasing effect
